Assay results as given in patent publication US9340590B2 (priority 2011, dated 2016).

Legend:
Experiment in all cases: cell-based
hNav1.7 = hNav1.7 (Homo sapiens, UniProt Q15858); type: cell-based; details: IonWorks Quattro, use-dependent protocol, hNav1.7; read-out: IWQ Use Nav1.7
hNav1.3 = hNav1.3 (Homo sapiens, UniProt Q9NY46); details: IonWorks Quattro, use-dependent protocol, hNav1.3; read-out: IWQ Use Nav1.3
hNav1.5 = hNav1.5 (Homo sapiens, UniProt Q14524); details: IonWorks Quattro, use-dependent protocol, hNav1.5; read-out: IWQ Use Nav1.5

hNav1.3, sequence (Q9NY46 whole entry, looked up): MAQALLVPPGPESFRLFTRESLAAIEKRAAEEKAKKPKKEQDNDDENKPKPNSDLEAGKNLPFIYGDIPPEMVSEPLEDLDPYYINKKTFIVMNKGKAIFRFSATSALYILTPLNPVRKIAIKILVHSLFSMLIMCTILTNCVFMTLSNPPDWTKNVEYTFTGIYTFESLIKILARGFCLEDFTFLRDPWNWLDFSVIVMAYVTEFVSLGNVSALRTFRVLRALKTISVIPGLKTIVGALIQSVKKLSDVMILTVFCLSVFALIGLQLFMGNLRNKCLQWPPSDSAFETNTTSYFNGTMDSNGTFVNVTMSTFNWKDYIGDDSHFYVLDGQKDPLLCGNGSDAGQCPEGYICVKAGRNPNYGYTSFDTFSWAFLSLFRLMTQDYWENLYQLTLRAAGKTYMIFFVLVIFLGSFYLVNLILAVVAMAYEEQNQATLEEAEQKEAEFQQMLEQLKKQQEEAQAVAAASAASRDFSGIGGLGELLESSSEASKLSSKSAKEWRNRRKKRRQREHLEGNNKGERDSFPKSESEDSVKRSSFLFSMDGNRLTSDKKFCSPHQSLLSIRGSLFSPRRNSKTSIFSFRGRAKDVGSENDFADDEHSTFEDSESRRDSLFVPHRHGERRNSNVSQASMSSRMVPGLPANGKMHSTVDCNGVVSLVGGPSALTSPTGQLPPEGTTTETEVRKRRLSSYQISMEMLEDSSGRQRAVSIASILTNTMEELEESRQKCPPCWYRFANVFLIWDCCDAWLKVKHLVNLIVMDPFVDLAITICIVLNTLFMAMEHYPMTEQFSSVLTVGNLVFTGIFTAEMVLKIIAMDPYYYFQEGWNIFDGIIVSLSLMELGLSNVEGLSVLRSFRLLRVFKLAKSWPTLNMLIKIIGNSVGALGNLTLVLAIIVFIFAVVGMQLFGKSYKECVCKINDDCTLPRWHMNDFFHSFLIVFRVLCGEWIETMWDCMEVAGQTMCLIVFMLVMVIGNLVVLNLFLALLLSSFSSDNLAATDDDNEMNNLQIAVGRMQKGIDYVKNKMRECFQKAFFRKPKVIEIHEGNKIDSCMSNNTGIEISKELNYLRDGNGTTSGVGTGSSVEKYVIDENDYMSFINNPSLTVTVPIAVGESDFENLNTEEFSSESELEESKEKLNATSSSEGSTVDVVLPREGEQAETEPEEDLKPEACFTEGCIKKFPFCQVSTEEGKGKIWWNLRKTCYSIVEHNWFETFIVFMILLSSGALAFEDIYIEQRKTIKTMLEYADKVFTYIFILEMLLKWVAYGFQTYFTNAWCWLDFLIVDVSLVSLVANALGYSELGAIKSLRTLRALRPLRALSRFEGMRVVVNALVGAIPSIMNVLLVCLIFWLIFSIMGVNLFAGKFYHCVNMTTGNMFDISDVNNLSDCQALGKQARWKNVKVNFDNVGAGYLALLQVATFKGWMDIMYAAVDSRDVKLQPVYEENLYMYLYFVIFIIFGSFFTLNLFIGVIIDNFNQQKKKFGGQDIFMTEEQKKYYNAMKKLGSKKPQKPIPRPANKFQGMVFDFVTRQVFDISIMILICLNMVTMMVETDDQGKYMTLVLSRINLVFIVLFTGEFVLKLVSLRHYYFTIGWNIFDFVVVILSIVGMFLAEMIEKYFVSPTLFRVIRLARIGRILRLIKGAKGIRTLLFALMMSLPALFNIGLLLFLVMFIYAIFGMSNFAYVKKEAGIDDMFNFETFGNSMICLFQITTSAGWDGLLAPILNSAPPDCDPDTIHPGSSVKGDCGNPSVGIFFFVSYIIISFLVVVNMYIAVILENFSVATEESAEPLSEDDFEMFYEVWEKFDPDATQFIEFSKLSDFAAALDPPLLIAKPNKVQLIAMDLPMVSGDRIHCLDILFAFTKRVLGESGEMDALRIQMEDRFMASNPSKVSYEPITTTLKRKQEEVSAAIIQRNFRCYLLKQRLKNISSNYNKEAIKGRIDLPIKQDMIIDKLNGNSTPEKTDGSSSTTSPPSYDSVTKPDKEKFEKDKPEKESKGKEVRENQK
hNav1.7, sequence (Q15858 whole entry, looked up): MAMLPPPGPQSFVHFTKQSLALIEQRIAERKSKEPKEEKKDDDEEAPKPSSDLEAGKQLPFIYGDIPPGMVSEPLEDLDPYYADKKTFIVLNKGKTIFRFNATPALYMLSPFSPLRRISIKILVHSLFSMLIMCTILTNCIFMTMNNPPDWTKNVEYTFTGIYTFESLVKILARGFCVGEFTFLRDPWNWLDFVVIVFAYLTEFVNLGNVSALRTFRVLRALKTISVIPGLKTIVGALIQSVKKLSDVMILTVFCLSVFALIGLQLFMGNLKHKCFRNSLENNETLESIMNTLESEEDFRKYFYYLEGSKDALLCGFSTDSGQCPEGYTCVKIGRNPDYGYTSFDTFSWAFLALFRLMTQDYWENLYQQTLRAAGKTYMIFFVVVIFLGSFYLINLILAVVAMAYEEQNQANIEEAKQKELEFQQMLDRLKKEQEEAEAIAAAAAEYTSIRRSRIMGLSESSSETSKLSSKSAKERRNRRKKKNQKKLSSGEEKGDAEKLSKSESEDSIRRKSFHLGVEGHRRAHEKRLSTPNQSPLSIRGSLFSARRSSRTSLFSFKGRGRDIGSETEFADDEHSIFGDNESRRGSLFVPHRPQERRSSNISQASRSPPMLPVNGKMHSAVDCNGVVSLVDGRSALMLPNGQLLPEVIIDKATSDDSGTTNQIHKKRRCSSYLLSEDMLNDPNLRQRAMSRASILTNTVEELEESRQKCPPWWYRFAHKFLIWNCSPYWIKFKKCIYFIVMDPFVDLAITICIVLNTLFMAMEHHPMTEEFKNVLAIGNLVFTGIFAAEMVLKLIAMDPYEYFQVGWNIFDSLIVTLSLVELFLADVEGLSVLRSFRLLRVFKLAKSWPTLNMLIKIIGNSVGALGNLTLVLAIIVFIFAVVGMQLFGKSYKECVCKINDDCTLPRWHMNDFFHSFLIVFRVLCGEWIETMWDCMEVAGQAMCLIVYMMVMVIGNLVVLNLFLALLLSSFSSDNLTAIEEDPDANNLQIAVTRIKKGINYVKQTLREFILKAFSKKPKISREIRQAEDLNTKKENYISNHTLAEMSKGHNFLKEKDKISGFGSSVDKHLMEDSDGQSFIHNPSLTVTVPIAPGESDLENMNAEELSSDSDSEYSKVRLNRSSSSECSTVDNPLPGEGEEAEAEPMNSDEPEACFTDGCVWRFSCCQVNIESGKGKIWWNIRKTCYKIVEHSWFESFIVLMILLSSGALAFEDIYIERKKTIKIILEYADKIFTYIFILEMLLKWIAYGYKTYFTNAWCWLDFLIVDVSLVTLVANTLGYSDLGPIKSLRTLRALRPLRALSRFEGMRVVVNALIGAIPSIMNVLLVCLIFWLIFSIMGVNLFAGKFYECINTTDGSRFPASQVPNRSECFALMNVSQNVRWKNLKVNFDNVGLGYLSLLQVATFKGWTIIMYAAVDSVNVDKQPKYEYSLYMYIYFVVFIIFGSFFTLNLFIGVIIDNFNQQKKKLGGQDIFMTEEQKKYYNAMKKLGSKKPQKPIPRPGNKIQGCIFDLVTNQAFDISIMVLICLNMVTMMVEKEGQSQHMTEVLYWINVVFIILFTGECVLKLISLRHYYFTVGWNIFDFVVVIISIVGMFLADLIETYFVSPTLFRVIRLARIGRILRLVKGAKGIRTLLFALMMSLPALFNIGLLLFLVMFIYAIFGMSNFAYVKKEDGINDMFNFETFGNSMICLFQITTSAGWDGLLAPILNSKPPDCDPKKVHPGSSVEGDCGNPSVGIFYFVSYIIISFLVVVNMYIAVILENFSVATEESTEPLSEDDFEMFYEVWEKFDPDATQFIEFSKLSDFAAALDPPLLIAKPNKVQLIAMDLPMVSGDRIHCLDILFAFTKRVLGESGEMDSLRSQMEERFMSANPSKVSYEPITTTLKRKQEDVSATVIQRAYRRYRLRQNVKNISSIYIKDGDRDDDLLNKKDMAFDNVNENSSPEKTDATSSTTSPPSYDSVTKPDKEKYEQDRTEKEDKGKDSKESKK

Compound | IC50 (hNav1.7) [nM] | IC50 (hNav1.3) [nM] | IC50 (hNav1.5) [µM]
CC[C@H](C)[C@@H]1NC(=O)[C@@H]2CSSC[C@@H]3NC(=O)[C@H](C(C)C)NC(=O)[C@H](CC(C)C)NC(=O)[C@H](CC(N)=O)NC(=O)[C@@H]4CCCN4C(=O)[C@H](CCCNC(=N)N)NC(=O)[C@H](CSSC[C@H](NC(=O)[C@@H](N)CC(=O)O)C(=O)N[C@@H](CC(C)C)C(=O)NCC(=O)N[C@@H](C4CCCC4)C(=O)N[C@@H](CC(C)C)C(=O)N[C@@H](CCCNC(=N)N)C(=O)N[C@@H](CCCCN)C(=O)N2)NC(=O)[C@H](CSSC[C@@H](C(=O)N[C@@H](CCCCN)C(=O)N[C@@H](Cc2ccc(O)cc2)C(=O)N[C@H](C(=O)N[C@@H](Cc2ccccc2)C(N)=O)C(C)C)NC(=O)[C@H](Cc2c[nH]c4ccccc24)NC(=O)[C@H](CCCCN)NC(=O)[C@H](Cc2c[nH]cn2)NC(=O)[C@H]([C@@H](C)O)NC(=O)[C@H](CCCNC(=N)N)NC(=O)[C@H](CO)NC3=O)NC(=O)[C@H](CCCCN)NC(=O)[C@H](CC(=O)O)NC(=O)[C@H](CC(N)=O)NC(=O)[C@H](CC(=O)O)NC(=O)[C@@H]2CCCN2C1=O [compound 663] | 59 | 240 | > 5
CC[C@H](C)[C@@H]1NC(=O)[C@@H]2CSSC[C@@H]3NC(=O)[C@H](C(C)C)NC(=O)[C@H](CC(C)C)NC(=O)[C@H](CC(N)=O)NC(=O)[C@@H]4CCCN4C(=O)[C@H](CCCNC(=N)N)NC(=O)[C@H](CSSC[C@H](NC(=O)[C@@H](N)CC(=O)O)C(=O)N[C@@H](CC(C)C)C(=O)NCC(=O)N[C@@H](C4CCCCC4)C(=O)N[C@@H](CC(C)C)C(=O)N[C@@H](CCCNC(=N)N)C(=O)N[C@@H](CCCCN)C(=O)N2)NC(=O)[C@H](CSSC[C@@H](C(=O)N[C@@H](CCCCN)C(=O)N[C@@H](Cc2ccc(O)cc2)C(=O)N[C@H](C(=O)N[C@@H](Cc2ccccc2)C(N)=O)C(C)C)NC(=O)[C@H](Cc2c[nH]c4ccccc24)NC(=O)[C@H](CCCCN)NC(=O)[C@H](Cc2c[nH]cn2)NC(=O)[C@H]([C@@H](C)O)NC(=O)[C@H](CCCNC(=N)N)NC(=O)[C@H](CO)NC3=O)NC(=O)[C@H](CCCCN)NC(=O)[C@H](CC(=O)O)NC(=O)[C@H](CC(N)=O)NC(=O)[C@H](CC(=O)O)NC(=O)[C@@H]2CCCN2C1=O [compound 664] | 19 | 110 | > 5
CC[C@H](C)[C@@H]1NC(=O)[C@@H]2CSSC[C@@H]3NC(=O)[C@H](C(C)C)NC(=O)[C@H](CC(C)C)NC(=O)[C@H](CC(N)=O)NC(=O)[C@@H]4CCCN4C(=O)[C@H](CCCNC(=N)N)NC(=O)[C@H](CSSC[C@H](NC(=O)[C@@H](N)CC(=O)O)C(=O)N[C@@H](CC(C)C)C(=O)NCC(=O)N[C@@H](Cc4ccc(C(=O)c5ccccc5)cc4)C(=O)N[C@@H](CC(C)C)C(=O)N[C@@H](CCCNC(=N)N)C(=O)N[C@@H](CCCCN)C(=O)N2)NC(=O)[C@H](CSSC[C@@H](C(=O)N[C@@H](CCCCN)C(=O)N[C@@H](Cc2ccc(O)cc2)C(=O)N[C@H](C(=O)N[C@@H](Cc2ccccc2)C(N)=O)C(C)C)NC(=O)[C@H](Cc2c[nH]c4ccccc24)NC(=O)[C@H](CCCCN)NC(=O)[C@H](Cc2c[nH]cn2)NC(=O)[C@H]([C@@H](C)O)NC(=O)[C@H](CCCNC(=N)N)NC(=O)[C@H](CO)NC3=O)NC(=O)[C@H](CCCCN)NC(=O)[C@H](CC(=O)O)NC(=O)[C@H](CC(N)=O)NC(=O)[C@H](CC(=O)O)NC(=O)[C@@H]2CCCN2C1=O [compound 665] | 230 | 30 | > 5
CC[C@H](C)[C@@H]1NC(=O)[C@@H]2CSSC[C@@H]3NC(=O)[C@H](C(C)C)NC(=O)[C@H](CC(C)C)NC(=O)[C@H](CC(N)=O)NC(=O)[C@@H]4CCCN4C(=O)[C@H](CCCNC(=N)N)NC(=O)[C@H](CSSC[C@H](NC(=O)[C@@H](N)CC(=O)O)C(=O)N[C@@H](CC(C)C)C(=O)NCC(=O)N[C@@H](Cc4ccc(Cl)c(Cl)c4)C(=O)N[C@@H](CC(C)C)C(=O)N[C@@H](CCCNC(=N)N)C(=O)N[C@@H](CCCCN)C(=O)N2)NC(=O)[C@H](CSSC[C@@H](C(=O)N[C@@H](CCCCN)C(=O)N[C@@H](Cc2ccc(O)cc2)C(=O)N[C@H](C(=O)N[C@@H](Cc2ccccc2)C(N)=O)C(C)C)NC(=O)[C@H](Cc2c[nH]c4ccccc24)NC(=O)[C@H](CCCCN)NC(=O)[C@H](Cc2c[nH]cn2)NC(=O)[C@H]([C@@H](C)O)NC(=O)[C@H](CCCNC(=N)N)NC(=O)[C@H](CO)NC3=O)NC(=O)[C@H](CCCCN)NC(=O)[C@H](CC(=O)O)NC(=O)[C@H](CC(N)=O)NC(=O)[C@H](CC(=O)O)NC(=O)[C@@H]2CCCN2C1=O [compound 666] | 29 | 16 | 4.5
CC[C@H](C)[C@@H]1NC(=O)[C@@H]2CSSC[C@@H]3NC(=O)[C@H](C(C)C)NC(=O)[C@H](CC(C)C)NC(=O)[C@H](CC(N)=O)NC(=O)[C@@H]4CCCN4C(=O)[C@H](CCCNC(=N)N)NC(=O)[C@H](CSSC[C@H](NC(=O)[C@@H](N)CC(=O)O)C(=O)N[C@@H](CC(C)C)C(=O)NCC(=O)N[C@@H](Cc4ccc(I)cc4)C(=O)N[C@@H](CC(C)C)C(=O)N[C@@H](CCCNC(=N)N)C(=O)N[C@@H](CCCCN)C(=O)N2)NC(=O)[C@H](CSSC[C@@H](C(=O)N[C@@H](CCCCN)C(=O)N[C@@H](Cc2ccc(O)cc2)C(=O)N[C@H](C(=O)N[C@@H](Cc2ccccc2)C(N)=O)C(C)C)NC(=O)[C@H](Cc2c[nH]c4ccccc24)NC(=O)[C@H](CCCCN)NC(=O)[C@H](Cc2c[nH]cn2)NC(=O)[C@H]([C@@H](C)O)NC(=O)[C@H](CCCNC(=N)N)NC(=O)[C@H](CO)NC3=O)NC(=O)[C@H](CCCCN)NC(=O)[C@H](CC(=O)O)NC(=O)[C@H](CC(N)=O)NC(=O)[C@H](CC(=O)O)NC(=O)[C@@H]2CCCN2C1=O [compound 667] | 120 | 17 | > 5
CC[C@H](C)[C@@H]1NC(=O)[C@@H]2CSSC[C@@H]3NC(=O)[C@H](C(C)C)NC(=O)[C@H](CC(C)C)NC(=O)[C@H](CC(N)=O)NC(=O)[C@@H]4CCCN4C(=O)[C@H](CCCNC(=N)N)NC(=O)[C@H](CSSC[C@H](NC(=O)[C@@H](N)CC(=O)O)C(=O)N[C@@H](CC(C)C)C(=O)NCC(=O)N[C@@H](Cc4ccc(C(F)(F)F)cc4)C(=O)N[C@@H](CC(C)C)C(=O)N[C@@H](CCCNC(=N)N)C(=O)N[C@@H](CCCCN)C(=O)N2)NC(=O)[C@H](CSSC[C@@H](C(=O)N[C@@H](CCCCN)C(=O)N[C@@H](Cc2ccc(O)cc2)C(=O)N[C@H](C(=O)N[C@@H](Cc2ccccc2)C(N)=O)C(C)C)NC(=O)[C@H](Cc2c[nH]c4ccccc24)NC(=O)[C@H](CCCCN)NC(=O)[C@H](Cc2c[nH]cn2)NC(=O)[C@H]([C@@H](C)O)NC(=O)[C@H](CCCNC(=N)N)NC(=O)[C@H](CO)NC3=O)NC(=O)[C@H](CCCCN)NC(=O)[C@H](CC(=O)O)NC(=O)[C@H](CC(N)=O)NC(=O)[C@H](CC(=O)O)NC(=O)[C@@H]2CCCN2C1=O [compound 668] | 180 | 11 | 4.4
CC[C@H](C)[C@@H]1NC(=O)[C@@H]2CSSC[C@@H]3NC(=O)[C@H](C(C)C)NC(=O)[C@H](CC(C)C)NC(=O)[C@H](CC(N)=O)NC(=O)[C@@H]4CCCN4C(=O)[C@H](CCCNC(=N)N)NC(=O)[C@H](CSSC[C@H](NC(=O)[C@@H](N)CC(=O)O)C(=O)N[C@@H](CC(C)C)C(=O)NCC(=O)N[C@@H](Cc4ccc(F)cc4)C(=O)N[C@@H](CC(C)C)C(=O)N[C@@H](CCCNC(=N)N)C(=O)N[C@@H](CCCCN)C(=O)N2)NC(=O)[C@H](CSSC[C@@H](C(=O)N[C@@H](CCCCN)C(=O)N[C@@H](Cc2ccc(O)cc2)C(=O)N[C@H](C(=O)N[C@@H](Cc2ccccc2)C(N)=O)C(C)C)NC(=O)[C@H](Cc2c[nH]c4ccccc24)NC(=O)[C@H](CCCCN)NC(=O)[C@H](Cc2c[nH]cn2)NC(=O)[C@H]([C@@H](C)O)NC(=O)[C@H](CCCNC(=N)N)NC(=O)[C@H](CO)NC3=O)NC(=O)[C@H](CCCCN)NC(=O)[C@H](CC(=O)O)NC(=O)[C@H](CC(N)=O)NC(=O)[C@H](CC(=O)O)NC(=O)[C@@H]2CCCN2C1=O [compound 669] | 91 | 37 | > 5
CC[C@H](C)[C@@H]1NC(=O)[C@@H]2CSSC[C@@H]3NC(=O)[C@H](C(C)C)NC(=O)[C@H](CC(C)C)NC(=O)[C@H](CC(N)=O)NC(=O)[C@@H]4CCCN4C(=O)[C@H](CCCNC(=N)N)NC(=O)[C@H](CSSC[C@H](NC(=O)[C@@H](N)CC(=O)O)C(=O)N[C@@H](CC(C)C)C(=O)NCC(=O)N[C@@H](Cc4ccc(C)cc4)C(=O)N[C@@H](CC(C)C)C(=O)N[C@@H](CCCNC(=N)N)C(=O)N[C@@H](CCCCN)C(=O)N2)NC(=O)[C@H](CSSC[C@@H](C(=O)N[C@@H](CCCCN)C(=O)N[C@@H](Cc2ccc(O)cc2)C(=O)N[C@H](C(=O)N[C@@H](Cc2ccccc2)C(N)=O)C(C)C)NC(=O)[C@H](Cc2c[nH]c4ccccc24)NC(=O)[C@H](CCCCN)NC(=O)[C@H](Cc2c[nH]cn2)NC(=O)[C@H]([C@@H](C)O)NC(=O)[C@H](CCCNC(=N)N)NC(=O)[C@H](CO)NC3=O)NC(=O)[C@H](CCCCN)NC(=O)[C@H](CC(=O)O)NC(=O)[C@H](CC(N)=O)NC(=O)[C@H](CC(=O)O)NC(=O)[C@@H]2CCCN2C1=O [compound 670] | 190 | 55 | > 5
CC[C@H](C)[C@@H]1NC(=O)[C@@H]2CSSC[C@@H]3NC(=O)[C@H](C(C)C)NC(=O)[C@H](CC(C)C)NC(=O)[C@H](CC(N)=O)NC(=O)[C@@H]4CCCN4C(=O)[C@H](CCCNC(=N)N)NC(=O)[C@H](CSSC[C@H](NC(=O)[C@@H](N)CC(=O)O)C(=O)N[C@@H](CC(C)C)C(=O)NCC(=O)N[C@@H](Cc4ccc(C(C)(C)C)cc4)C(=O)N[C@@H](CC(C)C)C(=O)N[C@@H](CCCNC(=N)N)C(=O)N[C@@H](CCCCN)C(=O)N2)NC(=O)[C@H](CSSC[C@@H](C(=O)N[C@@H](CCCCN)C(=O)N[C@@H](Cc2ccc(O)cc2)C(=O)N[C@H](C(=O)N[C@@H](Cc2ccccc2)C(N)=O)C(C)C)NC(=O)[C@H](Cc2c[nH]c4ccccc24)NC(=O)[C@H](CCCCN)NC(=O)[C@H](Cc2c[nH]cn2)NC(=O)[C@H]([C@@H](C)O)NC(=O)[C@H](CCCNC(=N)N)NC(=O)[C@H](CO)NC3=O)NC(=O)[C@H](CCCCN)NC(=O)[C@H](CC(=O)O)NC(=O)[C@H](CC(N)=O)NC(=O)[C@H](CC(=O)O)NC(=O)[C@@H]2CCCN2C1=O [compound 671] | 140 | 50 | > 5
